Measurements reported in ChEMBL document CHEMBL1201862, “PubChem BioAssay data set” (2004).
Calls of active or inactive are those of the source.

How the values were obtained:
[1] = target: T1, Zinc finger protein mex-5 (Caenorhabditis elegans, UniProt Q9XUB2); assay: potency of MEX-5 RNA-binding blockers – biochemical, C. elegans, fluorescence polarization, dose response (AID 1960)
T1 sequence (Q9XUB2 whole entry): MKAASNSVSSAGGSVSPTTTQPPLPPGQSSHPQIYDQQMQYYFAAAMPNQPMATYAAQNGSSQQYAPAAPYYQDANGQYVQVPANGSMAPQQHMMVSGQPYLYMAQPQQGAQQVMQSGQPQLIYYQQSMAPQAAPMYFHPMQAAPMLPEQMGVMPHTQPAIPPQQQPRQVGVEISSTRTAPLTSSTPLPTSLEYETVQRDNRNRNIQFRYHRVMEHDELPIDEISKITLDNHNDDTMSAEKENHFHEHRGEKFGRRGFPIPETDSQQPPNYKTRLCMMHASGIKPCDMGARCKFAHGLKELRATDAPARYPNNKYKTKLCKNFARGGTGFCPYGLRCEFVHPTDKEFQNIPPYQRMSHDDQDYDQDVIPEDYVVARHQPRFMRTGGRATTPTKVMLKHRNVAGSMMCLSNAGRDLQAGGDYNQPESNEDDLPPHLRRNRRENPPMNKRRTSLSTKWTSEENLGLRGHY

[2] = target: Heat shock protein HSP 90-alpha (Homo sapiens, UniProt P07900); assay type: functional, organism-based
[3] = target: T2, Apoptotic protease-activating factor 1 (Homo sapiens, UniProt O14727); assay: SAR analysis of small molecule inhibitors of Apaf-1 in a Fluorescent assay.; assay type: functional; settings: read-out: IC50_Mean
T2 sequence (O14727 whole entry): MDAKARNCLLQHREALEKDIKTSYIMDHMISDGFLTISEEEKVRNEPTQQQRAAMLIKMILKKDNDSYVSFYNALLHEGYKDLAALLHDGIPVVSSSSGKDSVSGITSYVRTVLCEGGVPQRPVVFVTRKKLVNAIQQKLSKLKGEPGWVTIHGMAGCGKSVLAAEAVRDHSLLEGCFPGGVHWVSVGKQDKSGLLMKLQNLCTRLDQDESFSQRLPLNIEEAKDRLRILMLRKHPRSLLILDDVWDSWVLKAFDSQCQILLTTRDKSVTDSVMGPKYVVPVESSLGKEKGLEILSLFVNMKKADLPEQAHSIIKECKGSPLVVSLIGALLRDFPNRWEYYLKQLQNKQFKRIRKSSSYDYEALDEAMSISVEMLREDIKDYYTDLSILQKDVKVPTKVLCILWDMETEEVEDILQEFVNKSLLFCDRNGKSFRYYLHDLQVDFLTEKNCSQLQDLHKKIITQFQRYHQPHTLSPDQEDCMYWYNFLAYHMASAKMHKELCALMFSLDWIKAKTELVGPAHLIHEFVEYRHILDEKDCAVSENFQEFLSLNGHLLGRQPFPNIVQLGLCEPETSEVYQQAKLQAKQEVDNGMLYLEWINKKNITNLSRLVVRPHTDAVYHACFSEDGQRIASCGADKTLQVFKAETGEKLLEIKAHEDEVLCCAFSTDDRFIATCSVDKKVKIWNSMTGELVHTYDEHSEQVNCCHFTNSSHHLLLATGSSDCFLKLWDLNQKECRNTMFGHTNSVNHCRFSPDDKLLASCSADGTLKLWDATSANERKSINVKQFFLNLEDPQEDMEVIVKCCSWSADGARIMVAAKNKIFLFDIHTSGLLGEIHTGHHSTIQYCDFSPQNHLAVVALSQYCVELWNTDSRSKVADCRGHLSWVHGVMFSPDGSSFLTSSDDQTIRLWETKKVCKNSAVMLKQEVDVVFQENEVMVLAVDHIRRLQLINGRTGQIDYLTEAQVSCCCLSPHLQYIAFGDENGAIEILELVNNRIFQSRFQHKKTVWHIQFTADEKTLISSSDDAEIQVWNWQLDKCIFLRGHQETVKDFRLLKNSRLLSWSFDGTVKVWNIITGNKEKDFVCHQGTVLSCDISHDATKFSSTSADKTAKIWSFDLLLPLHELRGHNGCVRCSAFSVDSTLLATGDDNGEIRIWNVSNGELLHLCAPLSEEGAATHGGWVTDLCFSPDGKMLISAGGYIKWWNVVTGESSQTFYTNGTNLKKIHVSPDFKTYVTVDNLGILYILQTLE

[4] = MIN6 cell viability loss – mouse insulinoma, cytotoxicity control, dose response (AID 2122); assay type: functional;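 further: confirmatory high-throughput counterscreen run to flag cytotoxic compounds; mouse MIN-6 beta cells carrying an insulin promoter eGFP reporter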
[5] = target: Delta-type opioid receptor (Homo sapiens, UniProt P41143); assay: HTS Image-Based Screen for Antagonists of the DOR Receptor. [Related pubchem assays (depositor defined):AID1777, AID1785, AID1786, AID2133]; assay type: functional;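 further: U2OS cells expressing DOR stimulated with 100 nM SNC80 agonist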
Mu-type opioid receptor = Mu-type opioid receptor (Homo sapiens, UniProt P35372); assay: HTS Image-Based Screen for Agonists of the MOR Receptor. [Related pubchem assays (depositor defined):AID1777, AID1785, AID1786, AID2133]; assay type: functional;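 further: imaging of beta-arrestin GFP recruitment into spots after receptor activation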
[6] = target: Kappa-type opioid receptor (Homo sapiens, UniProt P41145); assay type: functional
Beta-galactosidase = Beta-galactosidase (Escherichia coli, UniProt Q8VNN2); assay type: functional
SUMO-activating enzyme = SUMO-activating enzyme (Homo sapiens, UniProt Q9UBT2); assay: blockers of UBC9-mediated SUMO conjugation – biochemical, AlphaScreen, SUMOylation inhibitor project, confirmation (AID 2018); assay type: functional
[7] = microbe, parasite or virus in culture; assay type: functional; settings: Mycobacterium tuberculosis
[8] = target: 1-acylglycerol-3-phosphate O-acyltransferase ABHD5/Perilipin-5 (Homo sapiens, UniProt Q00G26+Q8WTS1); assay: Luminescence-based biochemical high throughput dose response assay for inhibitors of the interaction of the lipase co-activator protein, abhydrolase domain containing 5 (ABHD5) with perilipin-5 (MLDP; PLIN5) (2K validation set). [Related pubchem assays (depositor defined):AID493035, AID493241]
[9] = target: Protein-arginine deiminase type-4 (Homo sapiens, UniProt Q9UM07); assay: IC50 against protein arginine deiminase 4 – biochemical, fluorescence readout, dose response (AID 492970)
Cysteine protease ATG4B = target: T3, Cysteine protease ATG4B (Homo sapiens, UniProt Q9Y4P1); assay type: functional;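 further: Fluorescence-based dose-response confirmation assay measuring inhibition of ATG4B activity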
T3 sequence (Q9Y4P1 whole entry): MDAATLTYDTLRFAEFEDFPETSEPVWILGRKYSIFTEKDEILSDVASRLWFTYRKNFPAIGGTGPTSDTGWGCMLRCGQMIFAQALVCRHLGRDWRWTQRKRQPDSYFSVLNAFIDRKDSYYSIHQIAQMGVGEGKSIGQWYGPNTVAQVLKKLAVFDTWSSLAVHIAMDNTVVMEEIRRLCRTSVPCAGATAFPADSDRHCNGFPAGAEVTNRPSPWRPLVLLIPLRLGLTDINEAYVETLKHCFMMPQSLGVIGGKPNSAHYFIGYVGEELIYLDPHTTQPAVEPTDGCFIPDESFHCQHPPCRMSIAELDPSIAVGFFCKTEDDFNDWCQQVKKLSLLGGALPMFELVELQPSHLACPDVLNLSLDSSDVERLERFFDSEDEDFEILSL

Sequence of Beta-galactosidase (Q8VNN2 whole entry): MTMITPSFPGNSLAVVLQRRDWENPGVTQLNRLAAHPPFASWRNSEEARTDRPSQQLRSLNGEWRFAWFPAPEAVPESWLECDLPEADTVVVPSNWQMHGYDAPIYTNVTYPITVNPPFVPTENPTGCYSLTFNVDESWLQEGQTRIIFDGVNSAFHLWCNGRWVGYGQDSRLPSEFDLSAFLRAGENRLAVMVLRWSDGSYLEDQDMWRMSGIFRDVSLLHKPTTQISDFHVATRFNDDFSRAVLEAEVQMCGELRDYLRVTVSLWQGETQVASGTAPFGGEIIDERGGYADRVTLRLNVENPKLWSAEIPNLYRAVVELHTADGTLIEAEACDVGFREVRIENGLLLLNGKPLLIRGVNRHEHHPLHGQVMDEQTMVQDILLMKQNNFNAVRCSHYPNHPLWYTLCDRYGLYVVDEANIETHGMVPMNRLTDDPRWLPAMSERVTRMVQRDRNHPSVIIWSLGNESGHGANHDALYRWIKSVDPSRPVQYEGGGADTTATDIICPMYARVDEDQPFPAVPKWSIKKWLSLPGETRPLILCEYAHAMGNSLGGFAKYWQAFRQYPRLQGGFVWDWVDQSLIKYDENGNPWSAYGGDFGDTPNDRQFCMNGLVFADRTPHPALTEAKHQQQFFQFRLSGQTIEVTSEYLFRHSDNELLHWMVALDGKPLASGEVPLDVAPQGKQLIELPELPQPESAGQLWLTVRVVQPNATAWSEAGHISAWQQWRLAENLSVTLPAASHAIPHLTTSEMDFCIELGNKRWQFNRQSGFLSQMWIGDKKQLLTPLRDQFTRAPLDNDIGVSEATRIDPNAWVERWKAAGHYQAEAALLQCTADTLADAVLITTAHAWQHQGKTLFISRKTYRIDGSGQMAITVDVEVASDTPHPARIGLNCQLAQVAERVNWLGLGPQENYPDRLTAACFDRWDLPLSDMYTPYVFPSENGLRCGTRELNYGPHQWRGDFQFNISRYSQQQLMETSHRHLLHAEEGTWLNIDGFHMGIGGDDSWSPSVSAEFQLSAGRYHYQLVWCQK
Sequence of 1-acylglycerol-3-phosphate O-acyltransferase ABHD5/Perilipin-5 (Q00G26 whole entry, the tested form may be a part): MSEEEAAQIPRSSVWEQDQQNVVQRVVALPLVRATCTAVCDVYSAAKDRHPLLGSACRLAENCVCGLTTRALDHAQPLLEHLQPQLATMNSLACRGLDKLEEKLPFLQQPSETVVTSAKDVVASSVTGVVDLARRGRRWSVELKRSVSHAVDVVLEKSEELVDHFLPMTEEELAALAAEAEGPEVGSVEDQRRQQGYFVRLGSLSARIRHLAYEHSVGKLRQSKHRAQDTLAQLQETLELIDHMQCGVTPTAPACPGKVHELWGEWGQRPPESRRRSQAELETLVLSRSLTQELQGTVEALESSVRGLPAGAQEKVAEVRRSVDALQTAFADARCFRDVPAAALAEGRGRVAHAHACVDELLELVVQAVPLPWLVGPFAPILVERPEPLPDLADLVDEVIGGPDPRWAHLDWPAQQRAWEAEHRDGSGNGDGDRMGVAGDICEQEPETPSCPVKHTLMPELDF
Sequence of 1-acylglycerol-3-phosphate O-acyltransferase ABHD5/Perilipin-5 (Q8WTS1 whole entry, the tested form may be a part): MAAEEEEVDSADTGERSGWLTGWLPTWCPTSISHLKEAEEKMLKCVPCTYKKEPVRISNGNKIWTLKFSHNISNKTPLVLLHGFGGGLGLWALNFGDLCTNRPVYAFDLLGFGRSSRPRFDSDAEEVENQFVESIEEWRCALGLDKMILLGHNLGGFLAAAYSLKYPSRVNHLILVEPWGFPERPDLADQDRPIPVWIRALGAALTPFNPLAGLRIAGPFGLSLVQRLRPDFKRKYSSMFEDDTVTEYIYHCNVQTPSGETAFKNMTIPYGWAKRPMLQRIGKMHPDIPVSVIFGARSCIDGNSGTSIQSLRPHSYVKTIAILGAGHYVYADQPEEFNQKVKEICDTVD
Sequence of Protein-arginine deiminase type-4 (Q9UM07 whole entry): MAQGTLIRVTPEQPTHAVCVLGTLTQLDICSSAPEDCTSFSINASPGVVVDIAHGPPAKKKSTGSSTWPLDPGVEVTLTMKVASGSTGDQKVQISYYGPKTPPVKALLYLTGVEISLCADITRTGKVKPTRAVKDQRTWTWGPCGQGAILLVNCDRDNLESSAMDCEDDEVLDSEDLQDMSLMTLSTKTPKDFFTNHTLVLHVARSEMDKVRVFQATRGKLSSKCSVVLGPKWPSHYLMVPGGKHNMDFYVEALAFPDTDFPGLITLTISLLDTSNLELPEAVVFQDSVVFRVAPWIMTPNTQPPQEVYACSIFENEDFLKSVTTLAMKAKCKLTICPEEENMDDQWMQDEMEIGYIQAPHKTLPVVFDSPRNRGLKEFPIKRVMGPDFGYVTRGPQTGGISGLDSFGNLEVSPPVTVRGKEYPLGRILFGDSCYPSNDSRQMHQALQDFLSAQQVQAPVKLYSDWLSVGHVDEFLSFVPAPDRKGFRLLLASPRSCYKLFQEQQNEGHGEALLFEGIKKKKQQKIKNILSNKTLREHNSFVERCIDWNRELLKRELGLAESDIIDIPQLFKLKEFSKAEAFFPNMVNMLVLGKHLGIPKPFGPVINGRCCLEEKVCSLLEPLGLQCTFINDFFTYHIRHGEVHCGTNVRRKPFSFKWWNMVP
Sequence of Kappa-type opioid receptor (P41145 whole entry): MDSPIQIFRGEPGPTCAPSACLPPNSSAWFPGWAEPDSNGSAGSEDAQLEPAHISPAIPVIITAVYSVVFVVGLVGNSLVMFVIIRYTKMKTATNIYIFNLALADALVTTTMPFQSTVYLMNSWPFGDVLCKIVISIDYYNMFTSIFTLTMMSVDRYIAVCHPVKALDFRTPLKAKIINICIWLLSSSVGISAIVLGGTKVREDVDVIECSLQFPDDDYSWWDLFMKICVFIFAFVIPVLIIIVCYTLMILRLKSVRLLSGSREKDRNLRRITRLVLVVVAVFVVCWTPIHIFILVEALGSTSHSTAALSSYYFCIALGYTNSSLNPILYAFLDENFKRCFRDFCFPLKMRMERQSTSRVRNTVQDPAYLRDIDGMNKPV
Sequence of Mu-type opioid receptor (P35372 whole entry): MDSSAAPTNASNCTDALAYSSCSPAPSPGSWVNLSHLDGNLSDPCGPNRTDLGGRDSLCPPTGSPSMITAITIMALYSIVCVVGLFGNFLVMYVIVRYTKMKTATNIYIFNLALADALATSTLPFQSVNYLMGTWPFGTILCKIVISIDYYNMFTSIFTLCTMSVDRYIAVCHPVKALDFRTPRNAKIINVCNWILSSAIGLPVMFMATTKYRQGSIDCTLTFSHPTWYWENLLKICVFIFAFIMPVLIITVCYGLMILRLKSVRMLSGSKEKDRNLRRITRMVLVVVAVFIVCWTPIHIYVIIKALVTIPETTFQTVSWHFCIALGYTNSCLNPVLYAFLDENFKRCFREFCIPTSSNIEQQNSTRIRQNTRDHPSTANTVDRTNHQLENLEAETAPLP
Sequence of Delta-type opioid receptor (P41143 whole entry): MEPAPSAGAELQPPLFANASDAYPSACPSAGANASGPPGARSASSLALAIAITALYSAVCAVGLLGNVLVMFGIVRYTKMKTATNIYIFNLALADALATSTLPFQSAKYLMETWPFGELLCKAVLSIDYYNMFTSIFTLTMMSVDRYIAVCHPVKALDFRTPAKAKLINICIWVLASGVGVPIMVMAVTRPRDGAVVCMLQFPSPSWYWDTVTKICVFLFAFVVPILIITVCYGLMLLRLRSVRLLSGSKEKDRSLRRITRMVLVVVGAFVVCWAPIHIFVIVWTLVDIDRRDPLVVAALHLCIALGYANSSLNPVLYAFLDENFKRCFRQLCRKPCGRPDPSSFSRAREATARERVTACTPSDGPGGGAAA
Sequence of SUMO-activating enzyme (Q9UBE0 whole entry): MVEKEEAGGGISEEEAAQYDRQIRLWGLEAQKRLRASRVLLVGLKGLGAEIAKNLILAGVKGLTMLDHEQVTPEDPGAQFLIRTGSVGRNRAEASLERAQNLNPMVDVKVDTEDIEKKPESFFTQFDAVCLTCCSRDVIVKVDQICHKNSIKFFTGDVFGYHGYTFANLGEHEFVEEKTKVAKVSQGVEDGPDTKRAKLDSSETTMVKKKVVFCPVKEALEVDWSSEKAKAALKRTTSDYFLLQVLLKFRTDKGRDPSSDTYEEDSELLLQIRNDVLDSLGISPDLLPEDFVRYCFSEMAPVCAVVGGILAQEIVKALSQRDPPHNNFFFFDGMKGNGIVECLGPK
Sequence of SUMO-activating enzyme (Q9UBT2 whole entry): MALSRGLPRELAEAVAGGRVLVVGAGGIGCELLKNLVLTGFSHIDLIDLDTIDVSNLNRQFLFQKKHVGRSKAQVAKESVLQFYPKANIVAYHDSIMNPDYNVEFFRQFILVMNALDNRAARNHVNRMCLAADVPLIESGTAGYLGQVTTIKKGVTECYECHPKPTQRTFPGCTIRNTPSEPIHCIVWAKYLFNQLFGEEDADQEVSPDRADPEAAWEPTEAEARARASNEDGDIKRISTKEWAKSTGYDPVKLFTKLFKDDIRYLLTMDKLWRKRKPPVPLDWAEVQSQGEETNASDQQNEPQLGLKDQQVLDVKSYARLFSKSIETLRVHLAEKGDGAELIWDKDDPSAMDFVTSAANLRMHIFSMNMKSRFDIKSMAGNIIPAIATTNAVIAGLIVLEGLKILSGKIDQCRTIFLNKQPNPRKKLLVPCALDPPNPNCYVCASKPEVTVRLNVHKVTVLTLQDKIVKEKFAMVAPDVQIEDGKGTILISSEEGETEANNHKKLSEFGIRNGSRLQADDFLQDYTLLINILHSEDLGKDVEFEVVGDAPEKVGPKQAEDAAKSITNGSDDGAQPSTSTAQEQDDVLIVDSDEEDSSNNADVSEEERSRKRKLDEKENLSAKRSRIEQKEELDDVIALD

For O=C1c2cc(F)ccc2-n2c1nc1ccccc1c2=O, the EC50 [1] was > 300 µM (not active), the AC50 [2] was 3.73 µM (active) and the IC50 [3] was 67.7 µM (active).

In the case of O=C1C=C(N(CCO)Cc2ccccc2)c2ccccc2C1=O, the IC50 [4] is reported as 3.71 µM (active).

With CCC(=O)OCCNc1cc(Sc2nccn2C)c2nonc2c1[N+](=O)[O-] the IC50 [5] was 29.7 µM (inactive), the EC50 (Mu-type opioid receptor) was > 32 µM (inactive) and the IC50 [6] was 4.05 µM (active). The EC50 (Beta-galactosidase) was > 31.5 µM (inactive).

In the case of CCCCn1c(NC(=O)c2ccccc2Cl)c(C#N)c2nc3ccccc3nc21, the IC50 (SUMO-activating enzyme) is reported as 0.89 µM (active).

In the case of O=C1C(=O)c2ccccc2-c2ccccc21 [9,10-PHENANTHRENEQUINONE], the CC50 [7] is reported as 2.33 µM (active), the IC50 [8] is reported as 6.44 µM (active) and the IC50 [9] is reported as 16 µM (inactive). For the same molecule, the IC50 (Cysteine protease ATG4B) was 1.25 µM (active).
